Assay results from ChEMBL document CHEMBL3046273, “Molecular cloning and pharmacological characterisation of a tyramine receptor from the rice stem borer, Chilo suppressalis (Walker)” (Pest Manag Sci, 2013).
pEC50: −log10 of the molar value. Where a name gives a salt, the structure may show the parent alone. Activity calls are given as the source filed them. No cut-off for these calls is given here.

Assays:
Format in all cases: functional, cell-based
[1] = molecular target: T1, TyR1 (Chilo suppressalis) (UniProt H9TVJ1); assay: Agonist activity at Chilo suppressalis (rice stem borer) tyramine receptor TyR1 expressed in HEK293 cells assessed as reduction in forskolin-induced cAMP accumulation at 10 uM incubated for 20 min; set-up: scale not given: the % may be the effect or the level left
T1 sequence (whole entry): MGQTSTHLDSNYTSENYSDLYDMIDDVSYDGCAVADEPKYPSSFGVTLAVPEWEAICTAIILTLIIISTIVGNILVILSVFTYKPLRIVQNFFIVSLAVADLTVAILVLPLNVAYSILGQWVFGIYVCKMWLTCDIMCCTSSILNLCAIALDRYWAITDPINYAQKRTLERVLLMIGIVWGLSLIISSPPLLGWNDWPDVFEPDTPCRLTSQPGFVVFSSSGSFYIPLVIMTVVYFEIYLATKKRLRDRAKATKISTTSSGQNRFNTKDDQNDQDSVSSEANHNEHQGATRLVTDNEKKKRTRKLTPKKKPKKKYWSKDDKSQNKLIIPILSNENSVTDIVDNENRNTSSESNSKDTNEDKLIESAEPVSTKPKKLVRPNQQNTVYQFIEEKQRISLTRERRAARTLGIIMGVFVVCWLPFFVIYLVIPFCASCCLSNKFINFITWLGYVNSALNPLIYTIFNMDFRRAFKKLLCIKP

[2] = molecular target: T1, TyR1 (Chilo suppressalis); assay: Agonist activity at Chilo suppressalis (rice stem borer) tyramine receptor TyR1 expressed in HEK293 cells assessed as increase in forskolin-induced cAMP accumulation at 10 uM incubated for 20 min relative to untreated control
[3] = molecular target: T2, TyR1 (Chilo suppressalis, UniProt H9TVJ1); assay: (§1) Agonist activity at Chilo suppressalis (rice stem borer) tyramine receptor TyR1 expressed in HEK293 cells assessed as reduction in forskolin-induced cAMP accumulation incubated for 20 min
T2 sequence (H9TVJ1 whole entry): T1 sequence (whole entry)

[4] = molecular target: T1, TyR1 (Chilo suppressalis); assay: as §1
[5] = molecular target: T1, TyR1 (Chilo suppressalis); assay: Agonist activity at Chilo suppressalis (rice stem borer) tyramine receptor TyR1 expressed in HEK293 cells assessed as reduction in forskolin-induced cAMP accumulation at < 1 umol incubated for 20 min

Compound	Activity [1]	further results
NCCc1c[nH]c2ccc(O)cc12	inactive	Activity [2]: inactive
Cc1cc(Cl)ccc1/N=C/N(C)C	inactive	–
NCCc1ccc(O)cc1 [TYRAMINE HYDROCHLORIDE]	75%	pEC50 [3]: 6.43; Activity [4]: Dose-dependent effect
NCC(O)c1ccc(O)cc1 (racemic) [OCTOPAMINE HYDROCHLORIDE]	56%	pEC50 [3]: 6.01; Activity [4]: Dose-dependent effect
NCCc1ccc(O)c(O)c1	–	fold change (FC) [2]: 2
Cc1ccc(/N=C/N(C)/C=N/c2ccc(C)cc2C)c(C)c1	Active	Activity [5]: inactive
c1ccc2c(CC3=NCCN3)cccc2c1	inactive	–
Clc1cccc(Cl)c1NC1=NCCN1	Active	–
